# Test results from US4966900A, “Cephalosporin β-lactam compound and medicinal composition” (priority 1986, dated 1990).
# Counter-ions that a name gives are not always drawn.
# Columns and labels:
# Experiment in all cases: MIC
# E. cloacae 1V247 = type: cell-based; conditions: Enterobacter cloacae, Table 8
# Experimental: (§1) The minimum inhibition concentrations (MIC) of the compounds obtained in the respective examples described above were measured according to the standard method of Japanese Chemotherapy Association.
# S. aureus IAA498 = type: cell-based; conditions: Staphylococcus aureus
# Experimental: as §1
# E. cloacae 5D63-2 = conditions: Enterobacter cloacae, 5D632
# S. aureus Smith = conditions: Staphylococcus aureus
# E. colacae GN7471 = tested on: E. colacae GN7471
# C. freundii 1R524 = conditions: Citrobacter freundii, 1R524
# P. aeruginosa 4au542 = conditions: Pseudomonas aeruginosa, 4AU542, P. aeruginosa 4au542
# E. coli GN5482 = conditions: Escherichia coli, GN5482, E. coli GN5482
# P. aeruginosa GN10362 = conditions: Pseudomonas aeruginosa, GN10362
# E. cloacae 908RN = conditions: Enterobacter cloacae
# P. maltophilia OF247 = conditions: Stenotrophomonas maltophilia
# C. freundii 1R527 = conditions: Citrobacter freundii, 1R527
# C. freundii 1R523 = conditions: Citrobacter freundii, 1R523
# C. freundii 1R526 = conditions: Citrobacter freundii, 1R526
# C. freundii 1U692 = conditions: Citrobacter freundii, 1U692
# C. freundii GN7391 = conditions: Citrobacter freundii, GN7391, C. freundii GN7391
# P. vulgaris GN7919 = conditions: Proteus vulgaris, GN7919
# C. freundii 1U589 = conditions: Citrobacter freundii, 1U589
# C. freundii 5D60-1 = conditions: Citrobacter freundii, 5D601
# K. pneumoniae 4at521 = conditions: Klebsiella pneumoniae, 4AT521
# S. marcescens GN10857 = conditions: Serratia marcescens, GN10857, S. marcescens GN10857
# E. cloacae 1V25 = conditions: Enterobacter cloacae
# E. cloacae 5D52-2 = conditions: Enterobacter cloacae, 5D522
# E. coli ML4707 = conditions: Escherichia coli, ML4707, E. coli ML4707
# P. cepacia OF189 = conditions: Burkholderia cepacia, OF189, P. cepacia OF189
# P. aeruginosa 5D58-1 = conditions: Pseudomonas aeruginosa, 5D581, P. aeruginosa 5D58-1
# E. cloacae 1Y247 = type: cell-based; conditions: Enterobacter cloacae, Table 6, read-out: MIC
# Experimental: as §1
SMILES,MIC (E. cloacae 1V247),MIC (S. aureus IAA498; Table 7),MIC (E. cloacae 5D63-2),MIC (S. aureus Smith; Table 7),MIC (E. colacae GN7471; Table 7),MIC (C. freundii 1R524),MIC (P. aeruginosa 4au542; Table 7),MIC (E. coli GN5482; Table 7),MIC (P. aeruginosa GN10362),"MIC (E. cloacae 908RN; E. colacae 908RN, Table 7)",MIC (C. freundii 1R527),MIC (C. freundii 1R523),MIC (C. freundii 1R526),MIC (C. freundii 1U692),MIC (P. vulgaris GN7919),MIC (C. freundii 1U589),MIC (C. freundii 5D60-1),MIC (K. pneumoniae 4at521),MIC (E. cloacae 1V25),MIC (E. cloacae 5D52-2),further results
"CC(=O)Oc1ccc(C(=O)NNC(=O)C(C)(C)ON=C(C(=O)NC2C(=O)N3C(C(=O)O)=C(CSc4c(C)c(C)nc5c(C(=O)O)cnn45)CS[C@H]23)c2csc(N)n2)cc1OC(C)=O (stereo partly drawn) [Example 47, 7-{2-[2-Amino-1,3-thiazol-4-yl]-2-[1-(3-(3,4-diacetoxybenzoyl)carbazoyl)-1-methylethoxyimino]acetamido}-3-[(3-carboxy-5,6-dimethylpyrazolo[1,5-a]pyrimidin-7-yl)thiomethyl]-3-cephem-4-carboxylic acid]",3.13 µg/mL,50 µg/mL,0.39 µg/mL,25 µg/mL,0.39 µg/mL,0.39 µg/mL,0.78 µg/mL,0.025 µg/mL,0.39 µg/mL,0.78 µg/mL,0.78 µg/mL,0.39 µg/mL,0.39 µg/mL,0.39 µg/mL,6.26 µg/mL,1.56 µg/mL,0.78 µg/mL,0.025 µg/mL,3.13 µg/mL,0.2 µg/mL,MIC (P. maltophilia OF247; Table 7): 0.78 µg/mL; MIC (C. freundii GN7391; Table 7): 1.56 µg/mL; MIC (S. marcescens GN10857; Table 7): 0.39 µg/mL; MIC (E. coli ML4707; Table 7): 0.025 µg/mL; MIC (P. cepacia OF189; Table 7): < 0.006 µg/mL; MIC (P. aeruginosa 5D58-1; Table 7): 0.39 µg/mL
"CC(C)(ON=C(C(=O)NC1C(=O)N2C(C(=O)O)=C(CSc3ccnc4nc(C(=O)O)nn34)CS[C@H]12)c1csc(N)n1)C(=O)NNC(=O)c1ccc(O)c(O)c1 (stereo partly drawn) [Example 56, 7-{2-[2-Amino-1,3-thiazol-4-yl]-2-[1-(3-(3,4-dihydroxybenzoyl)carbazoyl)-1-methylethoxyimino]acetamido}-3-[(2-carboxy-s-triazolo[1,5-a]pyrimidin-7-yl)thiomethyl]-3-cephem-4-carboxylic acid]",12.5 µg/mL,12.5 µg/mL,1.56 µg/mL,6.25 µg/mL,0.39 µg/mL,1.56 µg/mL,0.2 µg/mL,0.025 µg/mL,0.1 µg/mL,1.56 µg/mL,1.56 µg/mL,1.56 µg/mL,3.13 µg/mL,6.25 µg/mL,1.56 µg/mL,6.25 µg/mL,6.25 µg/mL,0.025 µg/mL,12.5 µg/mL,0.1 µg/mL,MIC (P. maltophilia OF247; Table 7): 0.39 µg/mL; MIC (C. freundii GN7391; Table 7): 25 µg/mL; MIC (S. marcescens GN10857; Table 7): 0.39 µg/mL; MIC (E. coli ML4707; Table 7): 0.025 µg/mL; MIC (P. cepacia OF189; Table 7): < 0.006 µg/mL; MIC (P. aeruginosa 5D58-1; Table 7): 0.05 µg/mL
Cc1nc2nc(C(=O)O)cc(SCC3=C(C(=O)O)N4C(=O)C(NC(=O)C(=NOC(C)(C)C(=O)NNC(=O)c5ccc(O)c(O)c5)c5csc(N)n5)C4SC3)n2n1 (stereo not drawn) [Example 37],,,0.2 µg/mL,,,0.1 µg/mL,,,0.05 µg/mL,,0.1 µg/mL,0.1 µg/mL,0.1 µg/mL,0.2 µg/mL,0.78 µg/mL,0.2 µg/mL,0.39 µg/mL,< 0.006 µg/mL,6.25 µg/mL,0.1 µg/mL,"MIC (E. cloacae 1Y247): 3.13 µg/mL; MIC (S. aureus IAA498; Table 5): 25 µg/mL; MIC (S. aureus Smith; Table 5): 25 µg/mL; MIC (E. colacae GN7471; Table 5): 0.78 µg/mL; MIC (P. aeruginosa 4au542; Table 5): 0.2 µg/mL; MIC (E. coli GN5482; Table 5): 0.012 µg/mL; MIC (E. cloacae 908RN; E. cloacae 908RN, Table 6): 0.78 µg/mL; MIC (E. cloacae 908RN; E. colacae 908RN, Table 5): 0.78 µg/mL; MIC (P. maltophilia OF247; Table 5): 0.39 µg/mL; MIC (C. freundii GN7391; Table 5): 1.56 µg/mL; MIC (C. freundii GN7391; Table 6): 3.13 µg/mL; MIC (S. marcescens GN10857; Table 5): 0.2 µg/mL; MIC (E. coli ML4707; Table 5): 0.012 µg/mL; MIC (P. cepacia OF189; Table 5): < 0.006 µg/mL; MIC (P. aeruginosa 5D58-1; Table 5): 0.78 µg/mL"

# Further lines, with some results ahead:
MIC (E. cloacae 1V247),MIC (S. aureus IAA498; Table 7),MIC (E. cloacae 5D63-2),MIC (S. aureus Smith; Table 7),MIC (E. colacae GN7471; Table 7),MIC (C. freundii 1R524),MIC (P. aeruginosa 4au542; Table 7),MIC (E. coli GN5482; Table 7),MIC (P. aeruginosa GN10362),"MIC (E. cloacae 908RN; E. colacae 908RN, Table 7)",MIC (C. freundii 1R527),MIC (C. freundii 1R523),MIC (C. freundii 1R526),MIC (C. freundii 1U692),MIC (P. vulgaris GN7919),MIC (C. freundii 1U589),MIC (C. freundii 5D60-1),MIC (K. pneumoniae 4at521),MIC (E. cloacae 1V25),MIC (E. cloacae 5D52-2),SMILES,further results
6.25 µg/mL,3.13 µg/mL,0.39 µg/mL,1.56 µg/mL,1.56 µg/mL,0.2 µg/mL,0.1 µg/mL,< 0.006 µg/mL,0.1 µg/mL,0.39 µg/mL,3.13 µg/mL,0.2 µg/mL,1.56 µg/mL,1.56 µg/mL,0.78 µg/mL,3.13 µg/mL,1.56 µg/mL,0.012 µg/mL,6.25 µg/mL,0.1 µg/mL,"Cc1cc(SCC2=C(C(=O)O)N3C(=O)C(NC(=O)C(=NOC(C)(C)C(=O)NNC(=O)c4ccc(O)c(O)c4)c4csc(N)n4)[C@H]3SC2)n2nc(C)cc2n1 (stereo partly drawn) [Example 57, 7-{2-[2-Amino-1,3-thiazol-4-yl]-2-[1-(3-(3,4-dihydroxybenzoyl)carbazoyl)-1-methylethoxyimino]acetamido}-3-[(2,5-dimethylpyrazolo[1,5-a]pyrimidin-7yl)thiomethyl]-3-cephem-4-carboxylic acid]",MIC (P. maltophilia OF247; Table 7): 1.56 µg/mL; MIC (C. freundii GN7391; Table 7): 3.13 µg/mL; MIC (S. marcescens GN10857; Table 7): 1.56 µg/mL; MIC (E. coli ML4707; Table 7): < 0.006 µg/mL; MIC (P. cepacia OF189; Table 7): 0.012 µg/mL; MIC (P. aeruginosa 5D58-1; Table 7): 0.1 µg/mL
,,0.78 µg/mL,,,0.78 µg/mL,,,0.39 µg/mL,,0.78 µg/mL,0.2 µg/mL,0.2 µg/mL,12.5 µg/mL,6.25 µg/mL,0.78 µg/mL,0.39 µg/mL,0.012 µg/mL,3.13 µg/mL,0.78 µg/mL,"Cc1cc(SCC2=C(C(=O)O)N3C(=O)C(NC(=O)C(=NOC(C)(C)C(=O)NNC(=O)c4ccc(O)c(O)c4)c4csc(N)n4)C3SC2)n2nnnc2n1 (stereo not drawn) [Example 29, 7-{2-[2-amino-1,3-thiazol-4-yl]-2-[1-(3-(3,4-dihydroxybenzoyl)carbazoyl)-1-methylethoxyimino]acetamide}-3-[(5-methyltetrazolo[1,5-a]pyrimidin-7-yl)thiomethyl]-3-cephem-4-carboxylic acid.hydrochloride]","MIC (E. cloacae 1Y247): 0.78 µg/mL; MIC (S. aureus IAA498; Table 5): 3.13 µg/mL; MIC (S. aureus Smith; Table 5): 1.56 µg/mL; MIC (E. colacae GN7471; Table 5): 1.56 µg/mL; MIC (P. aeruginosa 4au542; Table 5): 0.78 µg/mL; MIC (E. coli GN5482; Table 5): 0.025 µg/mL; MIC (E. cloacae 908RN; E. cloacae 908RN, Table 6): 3.13 µg/mL; MIC (E. cloacae 908RN; E. colacae 908RN, Table 5): 6.25 µg/mL; MIC (P. maltophilia OF247; Table 5): 0.2 µg/mL; MIC (C. freundii GN7391; Table 5): 6.25 µg/mL; MIC (C. freundii GN7391; Table 6): 0.012 µg/mL; MIC (S. marcescens GN10857; Table 5): 0.39 µg/mL; MIC (E. coli ML4707; Table 5): < 0.006 µg/mL; MIC (P. cepacia OF189; Table 5): < 0.006 µg/mL; MIC (P. aeruginosa 5D58-1; Table 5): 0.39 µg/mL"
,,0.2 µg/mL,,,0.1 µg/mL,,,0.05 µg/mL,,0.1 µg/mL,0.2 µg/mL,0.1 µg/mL,0.2 µg/mL,0.39 µg/mL,0.39 µg/mL,6.25 µg/mL,< 0.006 µg/mL,0.39 µg/mL,0.1 µg/mL,"Cc1nc2c(C(=O)O)cnn2c(SCC2=C(C(=O)O)N3C(=O)C(NC(=O)C(=NOC(C)(C)C(=O)NNC(=O)c4ccc(O)c(O)c4)c4csc(N)n4)C3SC2)c1C (stereo not drawn) [Example 27, 7-{2-[2-Amino-1,3-thiazol-4-yl]-2-[1-(3-(3,4-dihydroxybenzoyl)carbazoyl)-1-methylethoxyimino]acetamide}-3-[(3-carboxy-5,6-dimethylpyrazolo[1,5-a]pyrimidin-7-yl)thiomethyl]-3-cephem-4-carboxylic acid.hydrochloride]","MIC (E. cloacae 1Y247): 0.78 µg/mL; MIC (S. aureus IAA498; Table 5): 50 µg/mL; MIC (S. aureus Smith; Table 5): 25 µg/mL; MIC (E. colacae GN7471; Table 5): 0.78 µg/mL; MIC (P. aeruginosa 4au542; Table 5): 0.2 µg/mL; MIC (E. coli GN5482; Table 5): < 0.006 µg/mL; MIC (E. cloacae 908RN; E. cloacae 908RN, Table 6): 0.78 µg/mL; MIC (E. cloacae 908RN; E. colacae 908RN, Table 5): 0.39 µg/mL; MIC (P. maltophilia OF247; Table 5): 0.2 µg/mL; MIC (C. freundii GN7391; Table 5): 0.78 µg/mL; MIC (C. freundii GN7391; Table 6): 0.78 µg/mL; MIC (S. marcescens GN10857; Table 5): 0.1 µg/mL; MIC (E. coli ML4707; Table 5): 0.012 µg/mL; MIC (P. cepacia OF189; Table 5): 0.012 µg/mL; MIC (P. aeruginosa 5D58-1; Table 5): 0.2 µg/mL"
